Reference: ChEMBL document CHEMBL1133800, “Microwave assisted synthesis of N-arylphthalamic acids with hyperlipidemic activity” (2001)

Experiments:
Format in all cases: functional
[1] = species on record: Mus musculus; test: Animal body weight was evaluated in Swiss white mice before treatment with the compound
[2] = test system: Mus musculus; test: Animal body weight was evaluated in Swiss white mice treated with 20 mg/kg/day of ip administration for 14 days; details: route intraperitoneal
[3] = species on record: Mus musculus; test: Plasma cholesterol level was evaluated in Swiss white mice before treatment with the compound
[4] = test system: Mus musculus; test: Plasma cholesterol level was evaluated in Swiss white mice treated with 20 mg/kg/day of ip administration for 14 days; details: route intraperitoneal
[5] = species on record: Mus musculus; test: Plasma triglyceride level was evaluated in Swiss white mice before treatment with the compound
[6] = test system: Mus musculus; test: Plasma triglyceride level was evaluated in Swiss white mice treated with 20 mg/kg/day of ip administration for 14 days; details: route intraperitoneal

Compound | Body weight [1] [g] | Body weight [2] [g] | Cholesterol [3] [mM] | Cholesterol [4] [mM] | Triglycerides [5] [mM] | Triglycerides [6] [mM]
O=C(O)c1ccccc1C(=O)Nn1cnnc1 | 35 | 39 | 2.46 | 2.95 | 1.12 | < 1.49
O=C(O)c1ccccc1C(=O)Nc1ccc(F)cc1 | 20 | <25 | 2.66 | < 3.17 | 1.26 | < 1.48
O=C(O)c1ccccc1C(=O)Nc1cccc(Cl)c1 | 24 | <28 | 2.17 | < 2.48 | 1.04 | < 1.28
O=C(O)c1ccccc1C(=O)Nc1ccccc1F | 26 | <30 | 3.06 | < 3.4 | 0.94 | < 1.23
O=C(O)c1ccccc1C(=O)Nc1ccccc1Cl | 26 | <29 | 2.11 | < 2.43 | 1.06 | < 1.32
O=C(O)c1ccccc1C(=O)Nc1ccccc1 | 28 | 29 | 2.71 | < 3.06 | 1.07 | < 1.3
O=C(O)c1ccccc1C(=O)Nc1nc[nH]n1 | 35 | 38 | 2.45 | 2.78 | 1.14 | < 1.58
O=C(O)c1ccccc1C(=O)Nc1ccc(Cl)cc1 | 25 | 28 | 2.3 | < 2.51 | 0.86 | < 1.06
O=C(O)c1ccccc1C(=O)Nc1cccc(F)c1 | 26 | <29 | 3.02 | < 3.28 | 1.01 | < 1.35
